Source: patent US20220274979A1 (Bayer Pharma Aktiengesellschaft, priority 2018, published 2022)

Target: T1, hSOS1 (hSOS1-mediated loading of hK-RasG12C-GDP) (Homo sapiens, UniProt Q07889)
T1 construct: hSOS1 (amino acid 564-1049); made in house; host or cells: E. coli BL21 (DE3)
T1 sequence (Q07889 with tags, fused parts or gaps): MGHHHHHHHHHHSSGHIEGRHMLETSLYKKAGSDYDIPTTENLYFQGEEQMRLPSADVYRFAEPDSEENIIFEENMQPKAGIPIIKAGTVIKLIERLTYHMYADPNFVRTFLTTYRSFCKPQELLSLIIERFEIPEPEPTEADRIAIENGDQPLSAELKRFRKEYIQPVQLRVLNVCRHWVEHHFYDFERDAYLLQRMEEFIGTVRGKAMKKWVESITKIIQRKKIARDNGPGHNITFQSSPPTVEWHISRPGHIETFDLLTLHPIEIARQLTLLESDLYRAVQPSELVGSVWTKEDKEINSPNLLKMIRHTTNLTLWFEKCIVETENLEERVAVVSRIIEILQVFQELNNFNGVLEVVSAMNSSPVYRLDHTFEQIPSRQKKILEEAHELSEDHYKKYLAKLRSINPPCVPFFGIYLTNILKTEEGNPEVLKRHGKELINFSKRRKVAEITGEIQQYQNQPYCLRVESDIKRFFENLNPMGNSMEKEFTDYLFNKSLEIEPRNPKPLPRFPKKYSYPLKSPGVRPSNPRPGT
Experiment: Biochemical Assay 3: hK-RasG12C activation assay by hSOS1 (loading with fluorescent GTP analog, HTRF)
Details: no GTP

## Cc1nc(NC(C)c2ccc(-c3ccccc3CN(C)C)s2)c2cc(N3CC(NC(=O)C4CCCCC4)C3)ncc2n1 (stereo not drawn) [Example 90, N-[1-(4-{[1-(5-{2-[(dimethylamino)methyl]phenyl}thiophen-2-yl)ethyl]amino}-2-methylpyrido[3,4-d]pyrimidin-6-yl)azetidin-3-yl]cyclohexanecarboxamide]
  IC50: 190 nM

## Cc1nc(NC(C)c2ccc(-c3ccccc3CN(C)C)s2)c2cc(N3CC(NC(=O)CC4CC4)C3)ncc2n1 (stereo not drawn) [Example 91, 2-cyclopropyl-N-[1-(4-{[1-(5-{2-[(dimethylamino)methyl]phenyl}thiophen-2-yl)ethyl]amino}-2-methylpyrido[3,4-d]pyrimidin-6-yl)azetidin-3-yl]acetamide]
  IC50: 179 nM

## Cc1nc(NC(C)c2ccc(-c3ccccc3CN(C)C)s2)c2cc(N3CC(N)C3)ncc2n1 (stereo not drawn) [Example 93, 6-(3-aminoazetidin-1-yl)-N-[1-(5-{2-[(dimethylamino)methyl]phenyl}thiophen-2-yl)ethyl]-2-methylpyrido[3,4-d]pyrimidin-4-amine]
  IC50: 82.9 nM

## Cc1nc(NC(C)c2ccc(-c3ccccc3CN(C)C)s2)c2cc(N3CC(NS(=O)(=O)c4ccccc4)C3)ncc2n1 (stereo not drawn) [Example 94, N-[1-(4-{[1-(5-{2-[(dimethylamino)methyl]phenyl}thiophen-2-yl)ethyl]amino}-2-methylpyrido[3,4-d]pyrimidin-6-yl)azetidin-3-yl]benzenesulfonamide]
  IC50: 170 nM

## Cc1nc(NC(C)c2ccc(-c3ccccc3CN(C)C)s2)c2cc(N3CC(NS(=O)(=O)Cc4ccccc4)C3)ncc2n1 (stereo not drawn) [Example 95, N-[1-(4-{[1-(5-{2-[(dimethylamino)methyl]phenyl}thiophen-2-yl)ethyl]amino}-2-methylpyrido[3,4-d]pyrimidin-6-yl)azetidin-3-yl]-1-phenylmethanesulfonamide]
  IC50: 204 nM

## Cc1nc(NC(C)c2ccc(-c3ccccc3CN(C)C)s2)c2cc(N3CC(NC(=O)Nc4ccccc4)C3)ncc2n1 (stereo not drawn) [Example 96, 1-[1-(4-{[1-(5-{2-[(dimethylamino)methyl]phenyl}thiophen-2-yl)ethyl]amino}-2-methylpyrido[3,4-d]pyrimidin-6-yl)azetidin-3-yl]-3-phenylurea]
  IC50: 206 nM
